Entries after “also recorded” stand apart in the source; their conditions may differ. Counter-ions that a name gives are not always drawn.

The source of these data is patent US10519179B2, “Highly efficient NRF2 activators-co-releasing molecule hybrids, their use in the treatment of inflammatory or cardiovascular diseases and their process of preparation” (Centre National de la Recherche Scientifique, priority 2015, dated 2019).

The test system of data set [1] is HO-1. Nature of the data set: HO-1 protein expression in human THP-1 cells. The data set is classed as cell-based. Here is the method: (§1) Human monocytes (THP-1 cells) were cultured in RPMI 1640-Glutamax medium supplemented with 1% penicillin/streptomycin, 1% sodium pyruvate and 10% fetal bovine serum (RPMIc). Cells at confluence were washed with PBS and treated with compound C at different concentrations for 6 h according to the experimental protocol. Compound C was dissolved in DMSO at 0.1% as a final concentration in complete medium.

The next data set has as its system IL-1β. Kind of data set: IL-1β production in LPS-treated human THP-1 cells (ELISA). The data set is classed as cell-based. The following applies: 5 μM, 24 h. On the procedure: IL-1β production was measured in the supernatants of human THP-1 cells treated with LPS (100 μg/ml) in the presence or absence of 5 μM comp. C, DMF or CORM-401. After 24 h incubation, the medium was collected and IL-1β levels quantified using an ELISA kit (R&D Systems) following the manufacturer's instructions.
In general terms: ELISA stands for enzyme-linked immunosorbent assay.

A further data set concerns BV2 microglia cells. Nature of the data set: reduced glutathione (GSH), DTNB colorimetric assay in BV2 microglia. The data set is classed as cell-based, mouse. The following applies: 10 μM. Here is the method: The 5,5′ dithiobis-(2-nitrobenzoic acid) (DTNB) colorimetric assay was used for the measurement of reduced glutathione (GSH). Briefly, BV2 microglia cells were seeded in 6-well-plates and incubated with 10 μM hybrids and dimethyl fumarate (DMF, positive control) for 3, 6 and 24 h. At the end of the incubation period, cells were initially washed with phosphate buffers solution, then scraped in 600 μL of 2% (w/v) 5-sulposalicylic acid solution and transferred to a 1.5 ml microtube, and finally centrifuged for 5 min at 10,000×g. An aliquot of the supernatant (500 μl) was then reacted with 0.5 ml DTNB solution (0.3 M sodium phosphate buffer, 10 mM EDTA and 0.2 mM DTNB) and after 5 min the absorbance was read spectrophotometrically at 412 nm (extinction coefficient 14.3 mM^−1 cm^−1).

Data set [2] deals with Nrf2. Kind of data set: Nrf2 expression in human THP-1 cells. The data set is classed as cell-based. Here is the method:
as §1

Data set [3] is described as follows: CO release in COP-1 fluorescence assay in buffer. The data set is classed as physicochemical. The note with it: in vitro conditions described in the examples, not specified further. On the procedure:
The release of CO from hybrids was assessed using COP-1, a fluorescent probe sensitive to CO. The fluorescence intensity of COP-1 (2 μM, Δex=475 nm) in buffer was measured in a cuvette to obtain a background fluorescence spectrum and spectra were then recorded immediately after addition of 50 μM tested compounds. The mean fluorescence intensity (MFI) of 3 independent reading was calculated using the fluorescence intensity values recorded at 507 nm after 60 min.

A short description of data set [4]: blood HbCO levels in mice after oral gavage. The data set is classed as in vivo. The note with it: oral gavage, 1, 3 and 6 hours after administration. On the procedure: Male C57 BL/6J mice were used for all experiments (Janvier Labs, France). Animals received at 8 weeks of age were placed on a standard diet and allowed to acclimatize for 2 weeks on a 12 hr light/dark cycle. All experiments were performed in compliance with INSERM guidelines for the use of animals and approved by the institutional review board at Paris-Est Creteil Val de Marne University. Mice were administered by oral gavage with a single dose of the following: 1) 200 μl of sesame oil (vehicle, control group); 2) Compound A (3 mg in 200 μl sesame oil); 3) Compound B (3 mg in 200 μl sesame oil).
Mice were sacrificed 6 hr after treatment by cervical dislocation. Livers, lungs, hearts and brains were excised and snap frozen for western blot analysis. Tissue samples were homogenized in lysis buffer (150 mM sodium chloride, 1.0% Triton X-100, 0.5% sodium deoxycholate 0.1% sodium dodecyl sulphate, 50 mM Tris, pH 8.0). Lysates were centrifuged for 20 min at 15,000 g at 4° C. and supernatants were collected and stored at −80° C. for further analysis. […] The release of CO from compounds of the invention was assessed spectrophotometrically by measuring the conversion of deoxyhemoglobin to carbonmonoxy hemoglobin (HbCO). […] The percent of HbCO was then calculated based on the absorbances at 420 and 432 nm with the reported extinction coefficients for mouse blood. […]

Data set [5] has as its system human THP-1 cells. Kind of data set: CO delivery to human THP-1 cells loaded with COP-1. The data set is classed as cell-based. The following applies: 10 μM, 15 min at 37° C. On the procedure:
To detect whether the compounds delivered CO to cells, human THP-1 cells were initially suspended in Dulbecco Phosphate Buffer Solution (+Ca, +Mg; Gibco® Cell Culture, Life Technologies) and then treated with compounds at a concentration of 10 μM for 15 min at 37° C. in 5 ml polypropylene round-bottom tubes (BD Falcon, Dominique Dutscher). Cells were then incubated for 30 min with 1 μM COP-1. Intracellular fluorescence of COP-1 was measured using a CyAnTM ADP LX7 Analyzer (Beckman Coulter) as previously reported.

Data set [6] relates to HO-1. Kind of data set: HO-1 protein expression in H9c2 cardiomyocytes. The data set is classed as cell-based, rat. The note with it: 1 μM to 10 μM, 6 h or 24 h, 20% or 5% O2. On the procedure:
The assessment of HO-1 induction by western blotting was performed as previously (Example 4.1). H9C2 cells rat cardiomyocytes were cultured in Dubelcco's Modified Eagle Medium containing: glucose 4.5 g/l, L-glutamine 2 mM, pyruvate) supplemented with fetal bovine serum (FBS) 10%, a mixture of penicillin (10,000 IU/ml)/streptomycin (10 mg/ml) (Gibco Life Technologies) and sodium Pyruvate 1% (Gibco Life Technologies). Cells were grown and subcutlured either in a normal incubator at 20% O2 or in a dedicated chamber in which the O2 levels was kept constantly at 5%, a value which reflects more closely the O2 concentrations found in vivo. For the adaptation of cells at 5 O2, cells were grown and passaged at least twice before conducting any experiment.
H9c2 cardiomyocytes were then incubated with increasing concentration of compound C (1 μM to 10 μM) for 6 h or 24 h either at 20% or 5% O2.

Data set [7] relates to human THP-1 cells. Kind of data set: cytotoxicity (LDH assay) in THP-1 cells. The data set is classed as cell-based. The note with it: 24 h, increasing concentrations, up to 10 μM. Here is the method: (§2) Cytotoxicity was evaluated in THP-1 cells and H9c2 cardiomyocytes 24 h after incubation with increasing concentrations of compound C.
Human monocytes (THP-1 cells) were cultured in RPMI 1640-Glutamax medium supplemented with 1% penicillin/streptomycin, 1% sodium pyruvate and 10% fetal bovine serum (RPMIc). Cells at confluence were washed with PBS and treated with compound C at different concentrations and for different periods of time according to the experimental protocol. Compound C was dissolved in DMSO at 0.1% as a final concentration in complete medium.
(§3) Cell viability was assessed using the previously described LDH assay.

For another data set, the system named is H9c2 cardiomyocytes. Nature of the data set: cytotoxicity (LDH assay) in H9c2 cardiomyocytes. The data set is classed as cell-based, rat. The note with it: 24 h, 20% or 5% oxygen, concentrations used. On the procedure:
as §2
H9c2 cardiomyocytes were cultured as previously (Example 4.2).
as §3

For data set [8], the system named is Nrf2. Kind of data set: nuclear expression of Nrf2 in BV2 microglia (Western blot). The following applies: cells and concentration not given. The data set is classed as cell-based, mouse. On the procedure: (§4) Cells were grown in an atmosphere of 5% CO2 at 37° C. in either 75 cm^2 flasks, 100 mm diameter Petri dishes, 6- or 24-well plates containing medium supplemented with 10% fetal bovine serum (Lonza) and penicillin (100 U·mL^−1)/streptomycin ([…]; Life Technologies). BV2 mouse microglial cells were grown in RPMI-1640 containing 2 g·L^−1 glucose and supplemented with 0.3 g·L^−1 1-glutamine.
BV2 microglia were incubated with 10 μM of hybrids for 2 h to assess nuclear translocation of Nrf2. Nuclear fractions were isolated using a Nuclear Extract Kit from Active Motif (La Hulpe, Belgium), according to the manufacturer's instructions, and stored at −80° C. Protein concentrations were measured using a Pierce BCA Protein Assay kit (Thermo Scientific).
(§5) Whole cell lysates (20 μg protein/sample) were resolved on 12% acrylamide gels, respectively, and proteins transferred to polyvinylidene difluroride membranes (Millipore, Brussels, Belgium). […] Bands were detected with chemiluminescent substrates (Pierce ECL®, Thermo Scientific or RevelBIOt® Intense, Ozyme) and images captured using a G:Box F3 Imagery Station and GeneSys Software (Syngene, Cambridge, UK). […]

Data set [9] has as its system HO-1. Kind of data set: HO-1 protein expression in BV2 microglia (Western blot). The data set is classed as cell-based, mouse. The following applies: cells and concentration not given. On the procedure:
as §4
To determine HO-1 protein expression, BV2 microglia were incubated with 10 μM hybrids (compounds) for 6 h. […] Protein concentrations were measured using a Pierce BCA Protein Assay kit (Thermo Scientific).
as §5

In data set [10] the test system is HO-1. Nature of the data set: cardiac HO-1 mRNA expression in mice after oral gavage. The note with it: 40 mg/kg oral gavage, 6 h. The data set is classed as in vivo. On the procedure:
(§6) FIG. 11 represents blood HbCO levels in vivo after compound C were administered to mice by oral gavage (FIG. 11A); mRNA expression of Nrf2 dependent genes (HO-1 and NQO-1) in the heart of mice after HbCO after administration of compound C (40 mg/kg) by oral gavage (FIG. 11B).

The subject of the next data set is NQO1. Nature of the data set: cardiac NQO1 mRNA expression in mice after oral gavage. The data set is classed as in vivo. The note with it: 40 mg/kg oral gavage, 24 h. On the procedure:
as §6

[11] abbreviates: THP-1 cells, 6 h, different concentrations.
Where [12] appears, read: identical concentrations (5 μM).

As for `COC(=O)/C=C/C(=O)OC` [DMF, dimethyl fumarate], in the data set with HO-1 [1] (THP-1 cells, 6 h), the “concentration from which an increase in HO-1 protein expression starts” value (“concentration from which an increase” for short) is given as 10 fold this concentration is not sufficient. Moreover, in the data set on IL-1β, the IL-1β production result is reported as “no effect”. In addition, the “intracellular reduced glutathione (GSH)” value with BV2 microglia cells (3 or 6 h) was “raised the level of GSH from 6 h of treatment”; with BV2 microglia cells (24 h), “significant raise”.
Take `COc1ccc(/C=C/C(=O)OCCN(C)C2=[S][Mn][S]2)cc1OC.[C-]#[O+].[C-]#[O+].[C-]#[O+].[C-]#[O+]` [Compound C]: the “activation of Nrf2” value with Nrf2 [2] (setting [11]) is given as “strongly promoted the activation of Nrf2”. Besides, in the data set on Nrf2 [2] (setting [12]), the “Nrf2 activation compared with CORM-401 and DMF” value was “more potent than DMF and comparative compound CORM-401”. Moreover, the “concentration from which an increase” value in the data set with HO-1 [1] (THP-1 cells, 6 h) was determined as 1 µM. Further, the HO-1 protein expression result with HO-1 [1] (setting [11]) is given as “induction of HO-1 protein expression; also recorded: concentration-dependent increase in HO-1 protein expression”; with HO-1 [6], “induced an increase in HO-1 protein expression; also recorded: significant expression of HO-1”. The “HO-1 activation compared with CORM-401 and DMF” value in the data set on HO-1 [1] (setting [12]) was “more potent than DMF and comparative compound CORM-401”. Also, the “CO release (summary statement)” value in data set [3] is listed as “significant amount of CO”. In addition, in data set [4], the HbCO levels result is recorded as “promotes an increase in HbCO levels”. In the data set with human THP-1 cells [5], the “CO release in cells (intracellular COP-1 fluorescence)” value is “significant and high amount of CO”. In addition, the IL-1β production entry in the data set with IL-1β is “decreased IL-1β production”. Also, the “toxicity toward human THP-1 cells” value in the data set on human THP-1 cells [7] was “do not show significant toxicity”. In addition, the “toxic effect toward H9c2 cardiomyocytes” value in the data set on H9c2 cardiomyocytes is given as “does not cause any visible toxic effect”. Further, the “nuclear expression of Nrf2 (summary statement)” value with Nrf2 [8] was “two fold increase”. Further, the “HO-1 protein expression (summary statement)” value in the data set with HO-1 [9] is “two fold increase”. Also, the “cardiac HO-1 mRNA expression” value with HO-1 [10] is listed as “promotes an increase”. Also, in the data set with NQO1, the “cardiac NQO1 mRNA expression” value was “promotes an increase”.
Take `CN(CC(=O)O)C(=S)[S-].[C-]#[O+].[C-]#[O+].[C-]#[O+].[C-]#[O+].[Mn]` [CORM-401, reference compound]: in the data set with HO-1 [1] (THP-1 cells, 6 h), the “concentration from which an increase” value is 10 fold this concentration is not sufficient. In addition, in the data set on IL-1β, the IL-1β production entry is given as “no effect”.
